Results published in patent US11400106B2, “Methods for inhibiting microbe growth” (priority 2018, dated 2022).
Converted amounts (≈) assume the structure as drawn. Where two headings read alike, the source gives them in different places.

Assays:
S. pneumoniae = experiment: Susceptibility testing of conjunctival isolates of S. pneumoniae; type: cell-based; details: Streptococcus pneumoniae, bicarbonate as in label
Method: (§1) This study included one hundred (n=100) clinical isolates of methicillin-resistant Staphylococcus aureus (MRSA) and ninety-two (n=92) clinical isolates of P. aeruginosa. All samples were collected from patients at Hamilton Health Sciences hospitals (Hamilton, Ontario, Canada). Isolates, regardless of site of infection, were selected for study if they were resistant to three or more antibiotics. The isolates were cultured on plates and subsequently tested for antimicrobial susceptibility. Initial culture and antibiotic susceptibility testing were performed by Hamilton General Hospital General Microbiology Laboratory using a VITEK 2 Automated System and its Advanced Expert System (bioMerieux) and were compliant with Clinical & Laboratory Standards Institute (CLSI) antibiotic susceptibility testing formulations. Both quantitative minimum inhibitory concentration (MIC) and CLSI breakpoints were reported for each antibiotic. Additionally, a total of 7 conjunctival-sourced ocular isolates of Streptococcus pneumoniae collected by the International Health Management Associates (IHMA) from various locations in the United States were used in the study.
Antimicrobial sensitivity of the pathogenic strains was determined in compliance with the CLSI protocol. […] Plates were incubated for 18 hours at 37° C. and read at 600 nm on a Tecan, infinite M1000 PRO plate reader. […]

[1] = system: macrolide-resistant strain of MRSA; experiment: Cellular accumulation of azithromycin by LC-MS/MS; type: cell-based, Staphylococcus aureus; details: azithromycin 512 μg/mL, 10 minutes contact
Method: A method to measure azithromycin accumulation into a macrolide-resistant strain of MRSA was adapted from a protocol described in Richter et al., Nature 545, pp. 299-304 (2017). Liquid chromatography with tandem mass spectroscopy (LC-MS/MS) was used to quantify accumulation of azithromycin in the absence or presence of 50 mM sodium bicarbonate. Azithromycin was used at 512 μg/mL (because the strain is macrolide-resistant). The azithromycin (in the absence or presence of bicarbonate) was in contact with the MRSA for 10 minutes.

P. aeruginosa CA1216 = experiment: Mouse model of skin infection, neutropenic Balb/c mice; type: in vivo, Pseudomonas aeruginosa; details: topical 200 μg/mL azithromycin with 40 mM sodium bicarbonate, 25 hours post-infection
Method: The effect of bicarbonate on antimicrobial activity of azithromycin against P. aeruginosa was tested in a mouse model of skin infection. Balb/c mice (6-8 weeks old, female) were rendered neutropenic. Mice were treated with cyclophosphamide on day −4 (150 mg/kg) and day −1 (100 mg/kg). The following compositions were prepared: (1) Vehicle: 5 mg/mL MC, 1% DMSO; […] A 10 mg/mL methylcellulose (MC) solution was made from methylcellulose 4000 cp. 100 mL of sterile water was heated in a microwave for 30 seconds prior to adding to MC to improve solubility. The composition was shaken on a vortex for ˜20 min to completely dissolve. The compositions for mouse treatments were prepared as follows: (1) Vehicle: 980 μL sterile water, 20 μL, DMSO, 1 mL MC (10 mg/mL); […] Each composition was vortexed after preparation. […] The inoculum was diluted and plated on LB to quantify colony-forming units (CFU). The mice were weighed. Buprenorphine IP (0.025 mg/kg) was administered as an analgesic. To anaesthetize the mice, isoflurane (gaseous anesthetic) was administered. […] The fur was stripped from the back of the neck using autoclave tape. An area of ˜2 cm^2 was tape stripped by applying and removing the tape 25-30 times. […] Mice were placed into a recovery cage and monitored until the righting reflex returned. Mice were singly housed and monitored after infection. […]

[2] = system: methicillin-resistant Staphylococcus aureus (MRSA); experiment: Susceptibility testing of MRSA clinical isolates (n=100); type: cell-based; details: for MIC50 / MIC90 / MIC: Staphylococcus aureus, MRSA
Method: as §1
(§2) Antimicrobial sensitivity of the pathogenic strains was determined in compliance with the CLSI protocol. Mueller-Hinton agar plates were used to streak out bacterial species and the direct colony suspension method for inoculum preparation was used to make a suspension of the organism in saline to the density of a McFarland 0.5 turbidity standard. Cation-adjusted Mueller-Hinton broth (CA-MHB) manufactured according to ISO technical standard was used for susceptibility testing in standard 96-well microdilution plates. All antibiotics were purchased as powders from Sigma-Aldrich Canada Co. (Oakville, Canada) and dissolved in appropriate solvent to provide stock solutions as instructed by the manufacturer. Desired test antibiotic solutions were diluted in solvent at a highest test concentration resulting in 256 μg/mL. Where sodium bicarbonate was used, aqueous sterile-filtered sodium bicarbonate solution (7.5% stock) from Sigma-Aldrich Canada Co. (Oakville, Canada) was diluted to the desired concentration in CAMHB. Plates were incubated for 18 hours at 37° C. and read at 600 nm on a Tecan, infinite M1000 PRO plate reader. In accordance with CLSI, methods with appropriate medium supplements for fastidious streptococci (2.5% lysed horse blood, Innovative Research, Inc., Novi, Mich.) were used. […] All MICs in the study were conducted in duplicate.

MRSA [3] = experiment: Checkerboard azithromycin and sodium bicarbonate against MRSA; type: cell-based, Staphylococcus aureus
Method: (§3) Standard checkerboard broth microdilution assays were set-up in 96-well microtiter plates with serially diluted 8 (or 10) concentrations of each drug (or bicarbonate), using the conditions based on CLSI guidelines, as noted above. All checkerboards were conducted in duplicate.
(§4) To assess the dose-dependence of the interaction of azithromycin and bicarbonate, standard microbroth checkerboard techniques in MRSA and P. aeruginosa were used. For both pathogens, enhancement of the activity of azithromycin was further pronounced with increasing concentrations of sodium bicarbonate, as shown in FIG. 34A and FIG. 34B, respectively. This is consistent in various different isolates of the pathogens. Evident within these checkerboards is the inherent resistance of MRSA and P. aeruginosa to azithromycin in the absence of bicarbonate, where >64 μg/mL of azithromycin was required to inhibit growth to less than 10% growth.

P. aeruginosa [4] = experiment: Susceptibility testing of P. aeruginosa clinical isolates (n=92); type: cell-based, Pseudomonas aeruginosa; details: Pseudomonas aeruginosa, P. aeruginosa, n = 92 isolates, bicarbonate as in label
Method: as §1, §2

P. aeruginosa [5] = experiment: Checkerboard azithromycin and sodium bicarbonate against P. aeruginosa; type: cell-based, Pseudomonas aeruginosa
Method: as §3, §4

MRSA [6] = experiment: Time kill curve; type: cell-based, Staphylococcus aureus; details: 256 μg/mL azithromycin, 50 mM bicarbonate, 4 hours
Method: Experiments to measure the effect of bicarbonate on bactericidal activity of azithromycin were completed according to a Clinical & Laboratory Standards Institute (CLSI) protocol. Briefly, the various treatments were added to logarithmic-phase culture of MRSA in CA-MHB at the concentrations indicated in FIG. 39 and incubated at 37° C. At time points indicated in FIG. 39, cell suspensions were 10-fold serially diluted using sterile PBS buffer and spread on plates of MHB agar. Bacterial colonies were counted after cultivation at 37° C. for 24 hours.

[7] = MRSA isolates, in the presence of 50 mM bicarbonate
[8] = n = 100 isolates, bicarbonate as in label
[9] = increasing concentrations of sodium bicarbonate

CC[C@H]1OC(=O)[C@H](C)[C@@H](O[C@H]2C[C@@](C)(OC)[C@@H](O)[C@H](C)O2)[C@H](C)[C@@H](O[C@@H]2O[C@H](C)C[C@H](N(C)C)[C@H]2O)[C@](C)(O)C[C@@H](C)CN(C)[C@H](C)[C@@H](O)[C@]1(C)O [Azithromycin]
MIC (S. pneumoniae; macrolide-resistant S. pneumoniae strain, read-out: MIC, #1186268 (R)): 32 µg/mL (≈ 42.7 µM)
MIC (S. pneumoniae; macrolide-susceptible S. pneumoniae strain, read-out: MIC, #1173373 (S)): 0.25 µg/mL (≈ 0.334 µM)
increase in accumulation in the presence of 50 mM bicarbonate [1]: approximately 2.5 fold
effect of bicarbonate on antimicrobial activity in vivo (CFU) (P. aeruginosa CA1216): enhanced
eradication rate ([2]; MRSA isolates, 50 mM bicarbonate added): 90%
eradication rate ([2]; MRSA isolates, without bicarbonate): 7%
MIC50 [2, 7]: 1 µg/mL
MIC90 [2, 7]: 2 µg/mL
MIC50 [2, 8]: 128 µg/mL (≈ 171 µM)
MIC90 [2, 8]: > 256 µg/mL
MIC ([2]; n = 100 isolates, bicarbonate as in label, read-out: Maximum MIC obtained): > 256 µg/mL
MIC ([2]; n = 100 isolates, bicarbonate as in label, read-out: Minimum MIC obtained): 1 µg/mL (≈ 1.34 µM)
concentration required to inhibit growth to less than 10% growth (MRSA [3]; in the absence of bicarbonate): > 64 µg/mL
dose-dependence of the interaction with sodium bicarbonate (MRSA [3]; [9]): enhancement
MIC50 (P. aeruginosa [4]): 64 µg/mL (≈ 85.4 µM)
MIC90 (P. aeruginosa [4]): 256 µg/mL (≈ 342 µM)
MIC (P. aeruginosa [4]; read-out: Maximum MIC obtained): > 256 µg/mL
MIC (P. aeruginosa [4]; read-out: Minimum MIC obtained): 0.5 µg/mL (≈ 0.668 µM)
concentration required to inhibit growth to less than 10% growth (P. aeruginosa [5]; in the absence of bicarbonate): > 64 µg/mL
dose-dependence of the interaction with sodium bicarbonate (P. aeruginosa [5]; [9]): enhancement
bactericidal action in the presence vs absence of bicarbonate (MRSA [6]): superior bactericidal action
